Laboratory results taken from the RepoRT retention time repository (doi:10.1007/s00216-021-03828-0).
Counter-ions that a name gives are not always drawn.

Assays:
Conditions in all cases: stereoisomer not certain
[1] = RP, Merck Supelco Ascentis Express C18, 100 × 2.1 mm, 2 µm, 40 °C, 0.2 mL/min, estimated dead time 1.1 min; A: water + 0.1% formic acid, pH 3; B: acetonitrile + 0.1% formic acid, pH 3; gradient (min/%B) 0/5 2/5 17/99.9 20/99.9
[2] = as above; remark: listed apart in the source
[3] = RP, Merck Supelco Ascentis Express C18, 100 × 2.1 mm, 2 µm, 40 °C, 0.4 mL/min, estimated dead time 0.55 min; A: water + 0.1% formic acid, pH 3; B: acetonitrile + 0.1% formic acid, pH 3; gradient (min/%B) 0/5 2/5 17/99.9 20/99.9
[4] = as above; remark: listed apart in the source
[5] = RP, Merck Supelco Ascentis Express C18, 100 × 2.1 mm, 2 µm, 39 °C, 0.3 mL/min, estimated dead time 0.73 min; A: water + 0.1% formic acid, pH 3; B: acetonitrile + 0.1% formic acid, pH 3; gradient (min/%B) 0/5 2/5 17/99.9 20/99.9
[6] = RP, Merck Supelco Ascentis Express C18, 100 × 2.1 mm, 2 µm, 40 °C, 0.25 mL/min, estimated dead time 0.88 min; A: water + 0.1% formic acid, pH 3; B: acetonitrile + 0.1% formic acid, pH 3; gradient (min/%B) 0/5 2/5 17/99.9 20/99.9
[7] = RP, Merck Supelco Ascentis Express C18, 100 × 2.1 mm, 2 µm, 40 °C, 0.35 mL/min, estimated dead time 0.63 min; A: water + 0.1% formic acid, pH 3; B: acetonitrile + 0.1% formic acid, pH 3; gradient (min/%B) 0/5 2/5 17/99.9 20/99.9

Structure (SMILES)	LC retention time [1]	LC retention time [2]	LC retention time [3]	LC retention time [4]	LC retention time [5]	LC retention time [6]	LC retention time [7]
CCCCCCCCCCCC(=O)OC(CC(=O)[O-])C[N+](C)(C)C (stereo not given) [LAUROYLCARNITINE]	10.7 min	10.8 min	9.29 min	9.25 min	9.71 min	10.2 min	9.5 min
Cn1cnc2c(ncn2C2OC(CO)C(O)C2O)c1=N (stereo not given) [1-METHYLADENOSINE]	2.01 min	2.01 min	1.01 min	0.993 min	1.31 min	1.58 min	1.16 min
CC(=O)C1CCC2C3CC=C4CC(OS(=O)(=O)O)CCC4(C)C3CCC12C (stereo not given) [PREGNENOLONE SULFATE]	10.1 min	9.94 min	8.55 min	8.55 min	9.19 min	9.46 min	8.79 min
CCC=CCC=CCC=CCC=CCC=CCCCC(=O)O [EICOSAPENTAENOATE]	15.9 min	15.9 min	13.9 min	13.9 min	14.7 min	15.2 min	14.2 min
Cc1ncc(CO)c(C(=O)O)c1O [4-PYRIDOXATE]	1.57 min	1.57 min	0.767 min	0.757 min	1.02 min	1.23 min	0.877 min
NC(Cc1cc(I)c(Oc2ccc(O)c(I)c2)c(I)c1)C(=O)O (stereo not given) [LIOTHYRONINE]	8.2 min	8.19 min	7.03 min	7 min	7.45 min	7.75 min	7.2 min
O=C(O)CCCCCCCCC(=O)O [SEBACATE]	7.81 min	7.79 min	6.39 min	6.34 min	6.92 min	7.27 min	6.59 min
CC1OC(n2cnc3c(N)ncnc32)C(O)C1O (stereo not given) [5'-DEOXYADENOSINE]	1.89 min	1.92 min	0.95 min	0.937 min	1.24 min	1.49 min	1.09 min
CC(=O)NC(CC(C)C)C(=O)O (stereo not given) [N-ACETYLLEUCINE]	5.89 min	5.9 min	4.39 min	4.36 min	4.93 min	5.35 min	4.63 min
Nc1ccccc1S(=O)(=O)O [ANILINE-2-SULFONATE]	1.74 min	1.76 min	0.847 min	0.823 min	1.18 min	1.38 min	0.95 min
CCCCCCSCC(NC(=O)CCC(N)C(=O)O)C(=O)NCC(=O)O (stereo not given) [S-HEXYL-GLUTATHIONE]	7.13 min	7.14 min	5.87 min	5.85 min	6.32 min	6.66 min	6.06 min
CC(CCC(=O)O)C1CCC2C3C(O)CC4CC(O)CCC4(C)C3CC(O)C12C (stereo not given) [CHOLATE]	10.3 min	10.3 min	8.94 min	8.9 min	9.4 min	9.77 min	9.14 min
O=c1[nH]cnc2c1ncn2C1OC(CO)C(O)C1O (stereo not given) [INOSINE]	1.37 min	1.39 min	0.703 min	0.663 min	0.943 min	1.12 min	0.76 min
CC(=O)NC(Cc1ccccc1)C(=O)O (stereo not given) [N-ACETYLPHENYLALANINE]	6.32 min	6.31 min	4.82 min	4.78 min	5.37 min	5.77 min	5.04 min
CCCCCCCCC=CCCCCCCCC(=O)OCC(O)CO (stereo not given) [OLEOYL-GLYCEROL]	17.3 min	17.3 min	15.1 min	15.1 min	15.9 min	16.5 min	15.5 min
NC(Cc1c[nH]c2ccc(O)cc12)C(=O)O (stereo not given) [5-HYDROXYTRYPTOPHAN]	1.75 min	1.71 min	0.853 min	0.81 min	1.1 min	1.35 min	0.993 min
CC(O)(CC(=O)O)CC(=O)O [3-HYDROXYMETHYLGLUTARATE]	1.59 min	1.6 min	0.773 min	0.76 min	1.06 min	1.26 min	0.893 min
Cc1cc2nc3c(=O)[nH]c(=O)nc-3n(CC(O)C(O)C(O)CO)c2cc1C (stereo not given) [RIBOFLAVIN]	5.39 min	5.38 min	4.24 min	4.23 min	4.65 min	4.94 min	4.41 min
NC(=O)Cc1c[nH]c2ccccc12 [INDOLE-3-ACETAMIDE]	5.84 min	5.83 min	4.27 min	4.23 min	4.85 min	5.28 min	4.51 min
O=C(O)C=Cc1ccc(O)cc1 [4-COUMARATE]	6.26 min	6.25 min	4.68 min	4.64 min	5.3 min	5.68 min	4.94 min
O=C(O)c1ccc(O)cc1 [4-HYDROXYBENZOATE]	4.53 min	4.53 min	2.59 min	2.54 min	3.42 min	3.91 min	2.94 min
CC(=O)NCCCC(=O)O [4-ACETAMIDOBUTANOATE]	1.63 min	1.63 min	0.8 min	0.783 min	1.07 min	1.29 min	0.923 min
Cc1c[nH]c(=O)[nH]c1=O [THYMINE]	1.59 min	1.6 min	0.783 min	0.8 min	1.05 min	1.27 min	0.903 min
O=C(O)Cc1c[nH]c2ccc(O)cc12 [5-HYDROXYINDOLEACETATE]	4.78 min	4.79 min	3.19 min	3.17 min	3.83 min	4.23 min	3.47 min
CCCCCCCCCCCC(=O)O [LAURATE]	14.7 min	14.7 min	12.6 min	12.5 min	13.3 min	13.9 min	12.9 min
CCCCCCCCCCCCCCCC(=O)O [PALMITATE]	17.9 min	17.9 min	15.7 min	15.7 min	16.5 min	17.1 min	16.1 min
O=c1[nH]c(=O)c2nccnc2[nH]1 [2,4-DIHYDROXYPTERIDINE]	1.41 min	1.41 min	0.7 min	0.687 min	0.967 min	1.13 min	0.783 min
CC(CC(=O)O)CC(=O)O [METHYGLUTARATE]	3.82 min	3.84 min	1.95 min	1.91 min	2.6 min	3.09 min	2.21 min
CSCC[C@H](NC=O)C(=O)O [N-FORMYL-L-METHIONINE]	3.77 min	3.77 min	1.91 min	1.87 min	2.52 min	3.02 min	2.16 min
O=C(C=Cc1ccc(O)c(O)c1)OC(Cc1ccc(O)c(O)c1)C(=O)O (stereo not given) [ROSMARINATE]	6.9 min	6.88 min	5.62 min	5.6 min	6.1 min	6.41 min	5.82 min
